Laboratory results as given in patent US12312354B2, “Selective BTK irreversible inhibitors” (SAN DIEGO STATE UNIVERSITY FOUNDATION, priority 2019, dated 2025).

Experiments:
BTK = BTK (Homo sapiens, UniProt Q06187); assay: In vitro kinase assay (biochemical), BTK; details: for IC50: in vitro kinase assay; for selectivity for BTK over BLK (BTK/BLK selectivity): ratio of BLK and BTK IC50
HER2 = HER2 (Homo sapiens, UniProt P04626); assay: In vitro kinase assay, HER2; type: biochemical
BLK = BLK (Homo sapiens, UniProt P51451); assay: In vitro kinase assay, BLK; type: biochemical
ITK = target: T1, ITK (Homo sapiens, UniProt Q08881); assay: In vitro kinase assay, ITK; type: biochemical
T1 sequence (Q08881 1-620): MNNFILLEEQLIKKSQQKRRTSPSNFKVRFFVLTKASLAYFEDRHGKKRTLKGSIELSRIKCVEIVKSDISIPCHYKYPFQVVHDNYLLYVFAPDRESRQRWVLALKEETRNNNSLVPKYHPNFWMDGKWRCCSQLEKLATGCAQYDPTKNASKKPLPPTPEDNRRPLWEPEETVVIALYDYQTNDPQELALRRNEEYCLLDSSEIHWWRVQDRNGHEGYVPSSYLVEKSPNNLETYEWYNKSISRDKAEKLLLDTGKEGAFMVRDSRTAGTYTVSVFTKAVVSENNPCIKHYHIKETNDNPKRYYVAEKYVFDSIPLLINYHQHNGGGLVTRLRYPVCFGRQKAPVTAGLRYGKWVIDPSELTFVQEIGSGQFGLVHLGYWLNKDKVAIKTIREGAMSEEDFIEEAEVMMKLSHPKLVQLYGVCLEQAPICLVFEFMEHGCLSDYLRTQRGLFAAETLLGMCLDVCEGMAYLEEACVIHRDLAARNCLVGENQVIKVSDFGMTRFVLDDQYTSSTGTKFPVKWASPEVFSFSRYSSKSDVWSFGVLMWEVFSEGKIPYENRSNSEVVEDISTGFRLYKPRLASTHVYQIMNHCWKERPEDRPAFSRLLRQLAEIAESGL

Sequence of HER2 (P04626 23-1255): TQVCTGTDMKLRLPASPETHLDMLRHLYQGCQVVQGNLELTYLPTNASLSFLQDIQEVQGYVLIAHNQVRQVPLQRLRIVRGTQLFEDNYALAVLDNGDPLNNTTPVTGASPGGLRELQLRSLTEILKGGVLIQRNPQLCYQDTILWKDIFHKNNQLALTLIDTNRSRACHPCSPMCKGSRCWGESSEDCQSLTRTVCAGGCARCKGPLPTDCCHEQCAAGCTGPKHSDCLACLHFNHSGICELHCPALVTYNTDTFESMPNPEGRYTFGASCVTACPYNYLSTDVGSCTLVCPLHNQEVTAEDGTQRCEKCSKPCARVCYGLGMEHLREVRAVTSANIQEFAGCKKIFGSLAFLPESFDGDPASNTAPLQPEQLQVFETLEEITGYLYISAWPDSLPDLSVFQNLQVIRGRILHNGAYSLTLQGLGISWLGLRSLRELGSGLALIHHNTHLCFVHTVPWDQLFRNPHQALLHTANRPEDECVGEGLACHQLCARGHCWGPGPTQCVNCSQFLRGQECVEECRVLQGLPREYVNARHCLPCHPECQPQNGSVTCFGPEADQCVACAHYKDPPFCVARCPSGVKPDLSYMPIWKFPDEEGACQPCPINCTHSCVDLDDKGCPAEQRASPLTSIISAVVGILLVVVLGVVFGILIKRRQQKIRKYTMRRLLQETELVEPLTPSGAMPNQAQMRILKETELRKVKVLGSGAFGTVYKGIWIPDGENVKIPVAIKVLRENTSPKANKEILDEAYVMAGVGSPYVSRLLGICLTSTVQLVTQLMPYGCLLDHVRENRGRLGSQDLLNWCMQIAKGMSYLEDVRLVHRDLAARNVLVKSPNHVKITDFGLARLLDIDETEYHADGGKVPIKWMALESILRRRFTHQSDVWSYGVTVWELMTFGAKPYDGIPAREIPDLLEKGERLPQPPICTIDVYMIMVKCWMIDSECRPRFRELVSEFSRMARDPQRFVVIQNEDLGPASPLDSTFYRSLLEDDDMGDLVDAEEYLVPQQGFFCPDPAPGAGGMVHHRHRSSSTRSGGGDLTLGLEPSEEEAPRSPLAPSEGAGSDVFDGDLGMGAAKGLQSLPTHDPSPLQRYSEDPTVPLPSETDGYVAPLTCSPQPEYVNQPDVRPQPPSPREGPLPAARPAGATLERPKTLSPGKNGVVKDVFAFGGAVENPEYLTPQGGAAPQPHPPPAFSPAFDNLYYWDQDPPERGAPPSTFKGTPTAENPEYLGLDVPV
Sequence of BTK (Q06187 whole entry): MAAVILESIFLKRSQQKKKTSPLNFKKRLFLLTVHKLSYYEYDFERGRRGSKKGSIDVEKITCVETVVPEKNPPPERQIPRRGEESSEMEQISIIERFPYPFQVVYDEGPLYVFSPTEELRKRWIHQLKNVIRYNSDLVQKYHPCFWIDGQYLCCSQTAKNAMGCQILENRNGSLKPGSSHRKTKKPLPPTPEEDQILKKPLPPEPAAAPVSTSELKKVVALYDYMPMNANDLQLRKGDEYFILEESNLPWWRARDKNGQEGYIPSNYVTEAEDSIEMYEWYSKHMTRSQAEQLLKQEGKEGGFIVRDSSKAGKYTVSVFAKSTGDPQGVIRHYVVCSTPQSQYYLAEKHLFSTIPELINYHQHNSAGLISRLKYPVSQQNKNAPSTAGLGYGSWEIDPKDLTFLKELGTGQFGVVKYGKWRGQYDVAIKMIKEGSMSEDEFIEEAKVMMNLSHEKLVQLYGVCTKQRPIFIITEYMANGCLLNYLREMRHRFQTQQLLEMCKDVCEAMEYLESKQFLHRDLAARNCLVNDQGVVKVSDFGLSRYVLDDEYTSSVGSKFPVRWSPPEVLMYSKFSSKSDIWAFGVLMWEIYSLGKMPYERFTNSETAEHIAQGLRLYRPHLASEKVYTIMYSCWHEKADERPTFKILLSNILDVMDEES
Sequence of BLK (P51451 whole entry): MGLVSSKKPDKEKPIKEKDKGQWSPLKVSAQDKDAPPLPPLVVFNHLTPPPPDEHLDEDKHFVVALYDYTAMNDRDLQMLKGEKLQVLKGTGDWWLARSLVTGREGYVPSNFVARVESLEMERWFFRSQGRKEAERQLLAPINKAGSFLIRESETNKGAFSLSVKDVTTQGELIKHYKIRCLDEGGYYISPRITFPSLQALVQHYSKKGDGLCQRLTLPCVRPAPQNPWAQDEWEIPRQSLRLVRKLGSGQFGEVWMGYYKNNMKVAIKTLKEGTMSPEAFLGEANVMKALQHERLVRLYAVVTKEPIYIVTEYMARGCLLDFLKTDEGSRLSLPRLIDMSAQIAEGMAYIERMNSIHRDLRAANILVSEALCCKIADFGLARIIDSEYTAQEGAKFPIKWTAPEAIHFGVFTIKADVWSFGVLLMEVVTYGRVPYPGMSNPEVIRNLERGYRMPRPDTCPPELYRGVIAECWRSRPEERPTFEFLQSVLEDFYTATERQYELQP

SMILES	IC50 (BTK) [nM]	IC50 (HER2) [nM]	IC50 (BLK) [nM]	IC50 (ITK) [nM]	improvement in affinity/potency towards BTK over the diastereomer (Ra, R) / (Ra)-3.1 (BTK; fold, BTK IC50 425 nM vs 3307 nM) [×]	selectivity for BTK over BLK (BTK/BLK selectivity) (BTK)
C=CC(=O)N1CCC[C@@H](n2cc(-c3ccc(Oc4ccccc4)cc3)c3c(N)ncnc32)C1 (racemic) [Rac]	0.47	451	0.29			
C=CC(=O)N1CCC[C@@H](n2c(C)c(-c3ccc(Oc4ccccc4)cc3C)c3c(N)ncnc32)C1 (single isomer, unassigned) [(Ra)-3.1]	3310	> 10000	1810	> 10000		
C=CC(=O)N1CCC[C@H](n2c(C)c(-c3ccc(Oc4ccccc4)cc3C)c3c(N)ncnc32)C1 (single isomer, unassigned) [(Ra)-3.2]	425	> 10000	187	> 10000	10	
C=CC(=O)N1CCCC(n2c(C)c(-c3ccc(C(=O)Nc4ccccn4)cc3C)c3c(N)ncnc32)C1 (single isomer, unassigned) [(Ra)-3.10]	24.2		128			
C=CC(=O)N1CCC[C@@H](n2c(C)c(-c3ccc(Oc4ccccc4)cc3C)c3c(N)ncnc32)C1 (single isomer, unassigned) [(Sa)-3.1]	> 10000	> 10000	9960	> 10000		
C=CC(=O)N1CCC[C@H](n2c(C)c(-c3ccc(Oc4ccccc4)cc3C)c3c(N)ncnc32)C1 (single isomer, unassigned) [(Sa)-3.2]	3920	> 10000	1730	> 10000		
C=CC(=O)N1CCCC(n2c(C)c(-c3ccc(C(=O)Nc4ccccn4)cc3C)c3c(N)ncnc32)C1 (single isomer, unassigned) [(Sa)-3.10]	21.7		90.4			
C=CC(=O)N1CCC[C@H](n2c(C)c(-c3ccc(Oc4ccccc4)cc3)c3c(N)ncnc32)C1 [3.3]	444		451			
C=CC(=O)N1CCC[C@@H](n2cc(-c3ccc(Oc4ccccc4)cc3)c3c(N)ncnc32)C1 [3.4]	2.7		9.1			
C=CC(=O)N1CCC[C@H](n2cc(-c3ccc(Oc4ccccc4)cc3)c3c(N)ncnc32)C1 [3.5]	17.3		55.9			
C=CC(=O)N1CCC[C@@H](n2cc(-c3ccc(Oc4ccccc4)cc3C)c3c(N)ncnc32)C1 [3.6]	6.4		14			about 2 ×
C=CC(=O)N1CCC[C@@H](n2nc(-c3ccc(Oc4ccccc4)cc3C)c3c(N)ncnc32)C1 [3.7]	5.5		8.4			
C=CC(=O)N1CCCC(n2nc(-c3c(C)cc(Oc4ccccc4)cc3C)c3c(N)ncnc32)C1 (stereo not shown) [3.8]	37.4		174			
C=CC(=O)N1CCCC(n2nc(-c3ccc(C(=O)Nc4ccccn4)cc3C)c3c(N)ncnc32)C1 (stereo not shown) [3.11]	1.12		32.4			30 ×
